# Data published in patent US20230257415A1, “COMPOUNDS FOR TREATING CNS DISORDERS” (SAGE THERAPEUTICS, INC., priority 2019, published 2023).
# pIC50: −log10 of the molar value.
# Molecular target: GABAA receptor
# Assay: [35S]-TBPS binding assay, rat brain cortical membranes, in the presence of GABA
# Conditions: inhibition of 3 nM [35S]-TBPS binding, 5 mM GABA, 90 min, room temp
# Procedure: [35S]-t-Butylbicyclophosphorothionate (TBPS) binding assays using rat brain cortical membranes in the presence of 5 mM GABA has been described (Gee et al, J. Pharmacol. Exp. Ther. 1987, 241, 346-353; Hawkinson et al, Mol. Pharmacol. 1994, 46, 977-985; Lewin, A.H et al., Mol. Pharmacol. 1989, 35, 189-194).
# Briefly, cortices are rapidly removed following decapitation of carbon dioxide-anesthetized Sprague-Dawley rats (200-250 g). The cortices are homogenized in 10 volumes of ice-cold 0.32 M sucrose using a glass/teflon homogenizer and centrifuged at 1500 x g for 10 min at 4° C. The resultant supernatants are centrifuged at 10,000 x g for 20 min at 4° C. to obtain the P2 pellets. The P2 pellets are resuspended in 200 mM NaCl/50 mM Na-K phosphate pH 7.4 buffer and centrifuged at 10,000 x g for 10 min at 4° C. This washing procedure is repeated twice and the pellets are resuspended in 10 volumes of buffer. Aliquots ([…]) of the membrane suspensions are incubated with 3 nM [^35S]-TBPS and […] aliquots of test drug dissolved in dimethyl sulfoxide (DMSO) (final 0.5%) in the presence of 5 mM GABA. The incubation is brought to a final volume of 1.0 mL with buffer. […] Following a 90 min incubation at room temp, the assays are terminated by filtration through glass fiber filters (Schleicher and Schuell No. 32) using a cell harvester (Brandel) and rinsed three times with ice-cold buffer. Filter bound radioactivity is measured by liquid scintillation spectrometry. Non-linear curve fitting of the overall data for each drug averaged for each concentration is done using Prism (GraphPad). […] The concentration of test compound producing 50% inhibition (IC50) of specific binding and the maximal extent of inhibition (Imax) are determined for the individual experiments with the same model used for the overall data and then the means ± SEM.s of the individual experiments are calculated.
# Various compounds are or can be screened to determine their potential as modulators of [^35S]-TBPS binding in vitro. These assays are or can be performed in accordance with the above.
compound,measurement,value
"Cn1ccc(C(=O)NC[C@H]2CCC[C@H]3[C@@H]4CC[C@@H]5C[C@](C)(O)CC[C@@H]5[C@H]4CC[C@]23C)n1 [Example 27, N-(((1S,4aS,4bR,6aR,8R,10aS,10bR,12aS)-8-hydroxy-8,12a-dimethyloctadecahydrochrysen-1-yl)methyl)-1-methyl-1H-pyrazole-3-carboxamide]",pIC50,6.00 to 7.00
"C[C@@]1(O)CC[C@H]2[C@H](CC[C@@H]3[C@@H]2CC[C@]2(C)[C@@H](CNC(=O)c4ccccn4)CCC[C@@H]32)C1 [Example 29, N-(((1S,4aS,4bR,6aR,8R,10aS,10bR,12aS)-8-hydroxy-8,12a-dimethyloctadecahydrochrysen-1-yl)methyl)picolinamide]",pIC50,6.00 to 7.00
"C[C@@]1(O)CC[C@H]2[C@H](CC[C@@H]3[C@@H]2CC[C@]2(C)[C@@H](CNC(=O)c4ccccc4F)CCC[C@@H]32)C1 [Example 30, 2-fluoro-N-(((1S,4aS,4bR,6aR,8R,10aS,10bR,12aS)-8-hydroxy-8,12a-dimethyloctadecahydrochrysen-1-yl)methyl)benzamide]",pIC50,> 7.00
"C[C@@]1(O)CC[C@H]2[C@H](CC[C@@H]3[C@@H]2CC[C@]2(C)[C@@H](CNC(=O)c4cccc(C#N)c4)CCC[C@@H]32)C1 [Example 31, 3-cyano-N-(((1S,4aS,4bR,6aR,8R,10aS,10bR,12aS)-8-hydroxy-8,12a-dimethyloctadecahydrochrysen-1-yl)methyl)benzamide]",pIC50,6.00 to 7.00
"C[C@@]1(O)CC[C@H]2[C@H](CC[C@@H]3[C@@H]2CC[C@]2(C)[C@@H](CNS(=O)(=O)C4CC4)CCC[C@@H]32)C1 [Example 32, N-(((1S,4aS,4bR,6aR,8R,10aS,10bR,12aS)-8-hydroxy-8,12a-dimethyloctadecahydrochrysen-1-yl)methyl)cyclopropanesulfonamide]",pIC50,6.00 to 7.00
"Cn1nccc1C(=O)NC[C@H]1CCC[C@H]2[C@@H]3CC[C@@H]4C[C@](C)(O)CC[C@@H]4[C@H]3CC[C@]12C [Example 33, N-(((1S,4aS,4bR,6aR,8R,10aS,10bR,12aS)-8-hydroxy-8,12a-dimethyloctadecahydrochrysen-1-yl)methyl)-1-methyl-1H-pyrazole-5-carboxamide]",pIC50,6.00 to 7.00
"C[C@@]1(O)CC[C@H]2[C@H](CC[C@@H]3[C@@H]2CC[C@]2(C)[C@@H](CNC(=O)c4ccc(C#N)cc4)CCC[C@@H]32)C1 [Example 34, 4-cyano-N-(((1S,4aS,4bR,6aR,8R,10aS,10bR,12aS)-8-hydroxy-8,12a-dimethyloctadecahydrochrysen-1-yl)methyl)benzamide]",pIC50,6.00 to 7.00
"C[C@@]1(O)CC[C@H]2[C@H](CC[C@@H]3[C@@H]2CC[C@]2(C)[C@@H](CNC(=O)c4cccnc4)CCC[C@@H]32)C1 [Example 35, N-(((1S,4aS,4bR,6aR,8R,10aS,10bR,12aS)-8-hydroxy-8,12a-dimethyloctadecahydrochrysen-1-yl)methyl)nicotinamide]",pIC50,6.00 to 7.00
"CC[C@]12CC[C@@](C)(O)C[C@H]1CC[C@H]1[C@@H]3CCC[C@H](CNC(=O)c4ccccc4)[C@@]3(C)CC[C@@H]12 [Example 36, N-(((1S,4aS,4bS,6aR,8R,10aS,10bS,12aS)-10a-ethyl-8-hydroxy-8,12a-dimethyloctadecahydrochrysen-1-yl)methyl)benzamide]",pIC50,6.00 to 7.00
"CC[C@]12CC[C@@](C)(O)C[C@H]1CC[C@H]1[C@@H]3CCC[C@H](CN(C)C(=O)c4ccccc4)[C@@]3(C)CC[C@@H]12 [Example 37, N-(((1S,4aS,4bS,6aR,8R,10aS,10bS,12aS)-10a-ethyl-8-hydroxy-8,12a-dimethyloctadecahydrochrysen-1-yl)methyl)-N-methylbenzamide]",pIC50,6.00 to 7.00
"CC[C@]12CC[C@@](C)(O)C[C@H]1CC[C@H]1[C@@H]3CCC[C@H](CN(C)S(=O)(=O)c4ccccc4)[C@@]3(C)CC[C@@H]12 [Example 38, N-(((1S,4aS,4bS,6aR,8R,10aS,10bS,12aS)-10a-ethyl-8-hydroxy-8,12a-dimethyloctadecahydrochrysen-1-yl)methyl)-N-methylbenzenesulfonamide]",pIC50,> 7.00
"CC[C@]12CC[C@@](C)(O)C[C@H]1CC[C@H]1[C@@H]3CCC[C@H](CNS(=O)(=O)c4ccccc4)[C@@]3(C)CC[C@@H]12 [Example 39, N-(((1S,4aS,4bS,6aR,8R,10aS,10bS,12aS)-10a-ethyl-8-hydroxy-8,12a-dimethyloctadecahydrochrysen-1-yl)methyl)benzenesulfonamide]",pIC50,6.00 to 7.00
"CC[C@]12CCC3[C@H]4CC[C@](O)(COC)C[C@H]4CC[C@H]3[C@@H]1CCC[C@@H]2CNC(=O)c1ccc(C#N)cc1 (stereo partly drawn) [Example 41, 4-cyano-N-(((1S,4aS,4bR,6aR,8R,10aS,12aS)-12a-ethyl-8-hydroxy-8-(methoxymethyl)octadecahydrochrysen-1-yl)methyl)benzamide]",pIC50,6.00 to 7.00
"C[C@H](NC(=O)c1ccc(C#N)cc1)[C@H]1CCC[C@H]2[C@@H]3CC[C@@H]4C[C@](C)(O)CC[C@@H]4C3CC[C@]12C (stereo partly drawn) [Example 42, 4-cyano-N-((1S)-1-((1S,4aS,4bR,6aR,8R,10aS,12aS)-8-hydroxy-8,12a-dimethyloctadecahydrochrysen-1-yl)ethyl)benzamide]",pIC50,6.00 to 7.00
"C[C@@H](NC(=O)c1ccc(C#N)cc1)[C@H]1CCC[C@H]2[C@@H]3CC[C@@H]4C[C@](C)(O)CC[C@@H]4C3CC[C@]12C (stereo partly drawn) [Example 43, 4-cyano-N-((1R)-1-((1S,4aS,4bR,6aR,8R,10aS,12aS)-8-hydroxy-8,12a-dimethyloctadecahydrochrysen-1-yl)ethyl)benzamide]",pIC50,6.00 to 7.00
"COC[C@@]1(O)CC[C@@H]2C3CC[C@]4(C)[C@@H]([C@@H](C)NC(=O)c5ccc(F)cc5)CCC[C@H]4[C@@H]3CC[C@@H]2C1 (stereo partly drawn) [Example 44, 4-fluoro-N-((1R)-1-((1S,4aS,4bR,6aR,8R,10aS,12aS)-8-hydroxy-8-(methoxymethyl)-12a-methyloctadecahydrochrysen-1-yl)ethyl)benzamide]",pIC50,6.00 to 7.00
"COC[C@@]1(O)CC[C@@H]2C3CC[C@]4(C)[C@@H]([C@H](C)NC(=O)c5ccc(F)cc5)CCC[C@H]4[C@@H]3CC[C@@H]2C1 (stereo partly drawn) [Example 45, 4-fluoro-N-((1S)-1-((1S,4aS,4bR,6aR,8R,10aS,12aS)-8-hydroxy-8-(methoxymethyl)-12a-methyloctadecahydrochrysen-1-yl)ethyl)benzamide]",pIC50,6.00 to 7.00
"COC[C@@]1(O)CC[C@@H]2C3CC[C@]4(C)[C@@H]([C@@H](C)NC(=O)c5ccc(C#N)cc5)CCC[C@H]4[C@@H]3CC[C@@H]2C1 (stereo partly drawn) [Example 46, 4-cyano-N-((1R)-1-((1S,4aS,4bR,6aR,8R,10aS,12aS)-8-hydroxy-8-(methoxymethyl)-12a-methyloctadecahydrochrysen-1-yl)ethyl)benzamide]",pIC50,6.00 to 7.00
"COC[C@@]1(O)CC[C@@H]2C3CC[C@]4(C)[C@@H]([C@H](C)NC(=O)c5ccc(C#N)cc5)CCC[C@H]4[C@@H]3CC[C@@H]2C1 (stereo partly drawn) [Example 47, 4-cyano-N-((1S)-1-((1S,4aS,4bR,6aR,8R,10aS,12aS)-8-hydroxy-8-(methoxymethyl)-12a-methyloctadecahydrochrysen-1-yl)ethyl)benzamide]",pIC50,6.00 to 7.00
"C[C@H](Nc1cccc(C#N)c1)[C@H]1CCC[C@H]2[C@@H]3CC[C@@H]4C[C@](C)(O)CC[C@@H]4C3CC[C@]12C (stereo partly drawn) [Example 48, 3-(((1S)-1-((1S,4aS,4bR,6aR,8R,10aS,12aS)-8-hydroxy-8,12a-dimethyloctadecahydrochrysen-1-yl)ethyl)amino)benzonitrile]",pIC50,> 7.00
"C[C@@H](Nc1cccc(C#N)c1)[C@H]1CCC[C@H]2[C@@H]3CC[C@@H]4C[C@](C)(O)CC[C@@H]4C3CC[C@]12C (stereo partly drawn) [Example 49, 3-(((1R)-1-((1S,4aS,4bR,6aR,8R,10aS,12aS)-8-hydroxy-8,12a-dimethyloctadecahydrochrysen-1-yl)ethyl)amino)benzonitrile]",pIC50,> 7.00
"C[C@H](Nc1ccc(C#N)cc1)[C@H]1CCC[C@H]2[C@@H]3CC[C@@H]4C[C@](C)(O)CC[C@@H]4C3CC[C@]12C (stereo partly drawn) [Example 50, 4-(((1S)-1-((1S,4aS,4bR,6aR,8R,10aS,12aS)-8-hydroxy-8,12a-dimethyloctadecahydrochrysen-1-yl)ethyl)amino)benzonitrile]",pIC50,> 7.00
